Test results from patent US10118916B2, “Modulators of cystic fibrosis transmembrane conductance regulator protein” (AbbVie S.à.r.l., priority 2016, dated 2018).

Molecular target: T1, F508delCFTR (Homo sapiens, UniProt P13569, DEL508-508)
T1 construct: expressed in transfected cells; host or cells: CFBE41o- (human lung derived epithelial cell line), doxycycline-inducible
Experiment: Cell Surface Expression-Horse Radish Peroxidase (CSE-HRP) assay
Assay type: cell-based
Details: CFBE41o-F508delCFTR-HRP cells; for EC50: F508delCFTR cell surface expression, luminescence, 18-24 hours at 33° C., highest concentration 20 μM; for Maximum % activity: maximum at any tested concentration, normalized to on-plate positive control (3 μM)
Outline: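 CFBE41o- cells expressing doxycycline-induced (0.5 μg/mL, 72 h at 37 °C) F508delCFTR with HRP in the fourth extracellular loop; compounds 8 points, 3-fold from 20 μM, 18-24 h at 33 °C. Surface HRP measured by luminol luminescence, normalised to DMSO and 3 μM reference corrector; EC50 from variable-slope sigmoidal fit of triplicate plates.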

T1 sequence (P13569 with tags, fused parts or gaps DEL508-508): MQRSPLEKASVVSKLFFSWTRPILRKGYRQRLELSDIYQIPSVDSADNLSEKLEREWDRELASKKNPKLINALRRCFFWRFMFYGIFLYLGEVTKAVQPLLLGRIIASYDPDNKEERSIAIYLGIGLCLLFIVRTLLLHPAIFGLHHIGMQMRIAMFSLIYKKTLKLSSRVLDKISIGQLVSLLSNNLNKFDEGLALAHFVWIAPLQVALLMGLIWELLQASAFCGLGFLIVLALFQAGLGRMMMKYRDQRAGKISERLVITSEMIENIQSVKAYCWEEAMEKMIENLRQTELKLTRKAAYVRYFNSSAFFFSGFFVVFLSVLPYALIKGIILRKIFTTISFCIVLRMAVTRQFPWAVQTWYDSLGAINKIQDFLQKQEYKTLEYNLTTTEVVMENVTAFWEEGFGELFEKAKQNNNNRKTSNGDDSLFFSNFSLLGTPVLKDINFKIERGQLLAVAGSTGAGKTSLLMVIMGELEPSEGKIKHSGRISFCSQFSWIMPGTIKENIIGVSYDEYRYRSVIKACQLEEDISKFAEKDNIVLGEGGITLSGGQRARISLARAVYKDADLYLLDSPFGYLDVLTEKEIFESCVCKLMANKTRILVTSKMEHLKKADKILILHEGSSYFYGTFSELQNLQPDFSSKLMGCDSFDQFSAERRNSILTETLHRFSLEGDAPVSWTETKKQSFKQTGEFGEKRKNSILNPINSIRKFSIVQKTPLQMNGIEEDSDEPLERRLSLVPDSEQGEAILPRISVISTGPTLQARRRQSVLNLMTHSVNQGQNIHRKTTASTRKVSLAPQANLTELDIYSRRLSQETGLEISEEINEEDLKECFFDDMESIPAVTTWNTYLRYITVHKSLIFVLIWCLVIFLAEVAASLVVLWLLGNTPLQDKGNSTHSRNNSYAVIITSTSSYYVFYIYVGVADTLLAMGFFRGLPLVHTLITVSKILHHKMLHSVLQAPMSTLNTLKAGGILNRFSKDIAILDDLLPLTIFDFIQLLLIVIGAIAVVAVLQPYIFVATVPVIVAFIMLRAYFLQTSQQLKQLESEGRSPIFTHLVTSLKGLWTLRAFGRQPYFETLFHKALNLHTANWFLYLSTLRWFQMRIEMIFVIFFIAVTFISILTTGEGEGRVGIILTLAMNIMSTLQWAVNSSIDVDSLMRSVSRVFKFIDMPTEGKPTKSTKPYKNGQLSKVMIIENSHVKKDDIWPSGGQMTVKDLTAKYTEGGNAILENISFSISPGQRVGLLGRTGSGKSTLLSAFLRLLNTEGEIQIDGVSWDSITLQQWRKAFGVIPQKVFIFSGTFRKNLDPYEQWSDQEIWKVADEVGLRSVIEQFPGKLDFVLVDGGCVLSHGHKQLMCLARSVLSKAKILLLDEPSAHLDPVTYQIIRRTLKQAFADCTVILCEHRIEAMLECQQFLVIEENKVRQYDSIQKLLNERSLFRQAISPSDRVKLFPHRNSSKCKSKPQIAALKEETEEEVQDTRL

| EC50 [nM] | Maximum % activity [%] | Compound |
| --- | --- | --- |
| 350 | 62.0 | COc1ccc2c(c1)O[C@@H](c1ccc(C(=O)O)cc1)C[C@H]2NC(=O)C1(c2ccc(C#N)cc2)CC1 [Example 92, 4-[(2R,4R)-4-{[1-(4-cyanophenyl)cyclopropane-1-carbonyl]amino}-7-methoxy-3,4-dihydro-2H-1-benzopyran-2-yl]benzoic acid] |
| > 20000 | 5.7 | COc1ccc2c(c1)O[C@@H](c1ccc(C(=O)O)cc1)C[C@H]2NC(=O)C1(c2ccc(F)cc2)CCCC1 [Example 93, 4-[(2R,4R)-4-{[1-(4-fluorophenyl)cyclopentane-1-carbonyl]amino}-7-methoxy-3,4-dihydro-2H-1-benzopyran-2-yl]benzoic acid] |
| 1330 | 76.0 | COc1ccc2c(c1)O[C@@H](c1ccc(C(=O)O)cc1)C[C@H]2NC(=O)C1(c2ccc(Cl)c(Cl)c2)CCC1 [Example 95, 4-[(2R,4R)-4-{[1-(3,4-dichlorophenyl)cyclobutane-1-carbonyl]amino}-7-methoxy-3,4-dihydro-2H-1-benzopyran-2-yl]benzoic acid] |
| > 20000 | 15.9 | COc1ccc2c(c1)O[C@@H](c1ccc(C(=O)O)cc1)C[C@H]2NC(=O)C(C)(C)Oc1ccc2c(c1)OCO2 [Example 99, 4-[(2R,4R)-4-{2-[(2H-1,3-benzodioxol-5-yl)oxy]-2-methylpropanamido}-7-methoxy-3,4-dihydro-2H-1-benzopyran-2-yl]benzoic acid] |
| 480 | 55.3 | COc1ccc2c(c1)CC[C@@]2(C)C(=O)N[C@@H]1C[C@H](c2ccc(C(=O)O)cc2)Oc2cc(OC)ccc21 [Example 100, 4-[(2R,4R)-7-methoxy-4-{[(1R)-5-methoxy-1-methyl-2,3-dihydro-1H-indene-1-carbonyl]amino}-3,4-dihydro-2H-1-benzopyran-2-yl]benzoic acid] |
| 1320 | 22.4 | COc1ccc2c(c1)O[C@@H](c1ccc(C(=O)O)cc1)C[C@H]2NC(=O)C(C)(C)Oc1ccc(C#N)cc1 [Example 107, 4-{(2R,4R)-4-[2-(4-cyanophenoxy)-2-methylpropanamido]-7-methoxy-3,4-dihydro-2H-1-benzopyran-2-yl}benzoic acid] |
| 840 | 47.7 | COc1ccc2c(c1)O[C@@H](c1ccc(C(=O)O)cc1)C[C@H]2NC(=O)C(C)(C)c1ccc(F)cc1 [Example 111, 4-{(2R,4R)-4-[2-(4-fluorophenyl)-2-methylpropanamido]-7-methoxy-3,4-dihydro-2H-1-benzopyran-2-yl}benzoic acid] |
| 360 | 59.9 | COc1ccc2c(c1)O[C@@H](c1ccc(C(=O)O)cc1)C[C@H]2NC(=O)C(C)(C)c1ccc2c(c1)OCCO2 [Example 112, 4-{(2R,4R)-4-[2-(2,3-dihydro-1,4-benzodioxin-6-yl)-2-methylpropanamido]-7-methoxy-3,4-dihydro-2H-1-benzopyran-2-yl}benzoic acid] |
| 630 | 69.8 | COc1ccc(C2(C(=O)N[C@@H]3C[C@H](c4ccc(C(=O)O)cc4)Oc4cc(OC)ccc43)CCC2)cc1 [Example 115, 4-[(2R,4R)-7-methoxy-4-{[1-(4-methoxyphenyl)cyclobutane-1-carbonyl]amino}-3,4-dihydro-2H-1-benzopyran-2-yl]benzoic acid] |

Continued, compound first:

| Compound | EC50 [nM] | Maximum % activity [%] |
| --- | --- | --- |
| COc1ccc2c(c1)O[C@@H](c1ccc(C(=O)O)cc1)C[C@H]2NC(=O)C1(c2cccc(F)c2)CCCC1 [Example 90, 4-[(2R,4R)-4-{[1-(3-fluorophenyl)cyclopentane-1-carbonyl]amino}-7-methoxy-3,4-dihydro-2H-1-benzopyran-2-yl]benzoic acid] | > 20000 | 8.1 |
| COc1ccc2c(c1)O[C@@H](c1ccc(C(=O)O)cc1)C[C@H]2NC(=O)C1(c2ccccc2F)CCCC1 [Example 91, 4-[(2R,4R)-4-{[1-(2-fluorophenyl)cyclopentane-1-carbonyl]amino}-7-methoxy-3,4-dihydro-2H-1-benzopyran-2-yl]benzoic acid] | > 20000 | 5.0 |
| COc1ccc2c(c1)O[C@@H](c1ccc(C(=O)O)cc1)C[C@H]2NC(=O)C1(c2ccccc2Br)CCC1 [Example 94, 4-[(2R,4R)-4-{[1-(2-bromophenyl)cyclobutane-1-carbonyl]amino}-7-methoxy-3,4-dihydro-2H-1-benzopyran-2-yl]benzoic acid] | 2630 | 49.0 |
| COc1ccc2c(c1)O[C@@H](c1ccc(C(=O)O)cc1)C[C@H]2NC(=O)C1(c2ccccc2Cl)CCC1 [Example 96, 4-[(2R,4R)-4-{[1-(2-chlorophenyl)cyclobutane-1-carbonyl]amino}-7-methoxy-3,4-dihydro-2H-1-benzopyran-2-yl]benzoic acid] | 3010 | 33.0 |
| COc1ccc2c(c1)O[C@@H](c1ccc(C(=O)O)cc1)C[C@H]2NC(=O)C1(c2ccccc2)CCCC1 [Example 97, 4-{(2R,4R)-7-methoxy-4-[(1-phenylcyclopentane-1-carbonyl)amino]-3,4-dihydro-2H-1-benzopyran-2-yl}benzoic acid] | > 20000 | 2.5 |
| COc1ccc2c(c1)O[C@@H](c1ccc(C(=O)O)cc1)C[C@H]2NC(=O)C1(c2ccc(Cl)cc2)CCCC1 [Example 98, 4-[(2R,4R)-4-{[1-(4-chlorophenyl)cyclopentane-1-carbonyl]amino}-7-methoxy-3,4-dihydro-2H-1-benzopyran-2-yl]benzoic acid] | > 20000 | 13.0 |
| COc1ccc2c(c1)O[C@@H](c1ccc(C(=O)O)cc1)C[C@H]2NC(=O)C1(c2cccc(Cl)c2)CC1 [Example 101, 4-[(2R,4R)-4-{[1-(3-chlorophenyl)cyclopropane-1-carbonyl]amino}-7-methoxy-3,4-dihydro-2H-1-benzopyran-2-yl]benzoic acid] | 660 | 46.0 |
| COc1ccc2c(c1)O[C@@H](c1ccc(C(=O)O)cc1)C[C@H]2NC(=O)C1(c2ccccc2)CCC1 [Example 102, 4-{(2R,4R)-7-methoxy-4-[(1-phenylcyclobutane-1-carbonyl)amino]-3,4-dihydro-2H-1-benzopyran-2-yl}benzoic acid] | > 20000 | 18.1 |
| COc1ccc2c(c1)O[C@@H](c1ccc(C(=O)O)cc1)C[C@H]2NC(=O)C1(c2ccccc2OC)CC1 [Example 103, 4-[(2R,4R)-7-methoxy-4-{[1-(2-methoxyphenyl)cyclopropane-1-carbonyl]amino}-3,4-dihydro-2H-1-benzopyran-2-yl]benzoic acid] | 4010 | 29.0 |
| COc1ccc2c(c1)O[C@@H](c1ccc(C(=O)O)cc1)C[C@H]2NC(=O)C1(c2ccc(Br)cc2)CCC1 [Example 104, 4-[(2R,4R)-4-{[1-(4-bromophenyl)cyclobutane-1-carbonyl]amino}-7-methoxy-3,4-dihydro-2H-1-benzopyran-2-yl]benzoic acid] | 1560 | 71.0 |
| COc1ccc2c(c1)O[C@@H](c1ccc(C(=O)O)cc1)C[C@H]2NC(=O)C1(c2ccccc2F)CC1 [Example 106, 4-[(2R,4R)-4-{[1-(2-fluorophenyl)cyclopropane-1-carbonyl]amino}-7-methoxy-3,4-dihydro-2H-1-benzopyran-2-yl]benzoic acid] | 1290 | 46.0 |
| COc1ccc2c(c1)O[C@@H](c1ccc(C(=O)O)cc1)C[C@H]2NC(=O)C1(c2ccc(Cl)cc2)CC1 [Example 108, 4-[(2R,4R)-4-{[1-(4-chlorophenyl)cyclopropane-1-carbonyl]amino}-7-methoxy-3,4-dihydro-2H-1-benzopyran-2-yl]benzoic acid] | 170 | 77.7 |
| COc1ccc2c(c1)O[C@@H](c1ccc(C(=O)O)cc1)C[C@H]2NC(=O)C(C)(C)c1ccc(OC(F)(F)F)cc1 [Example 109, 4-[(2R,4R)-7-methoxy-4-{2-methyl-2-[4-(trifluoromethoxy)phenyl]propanamido}-3,4-dihydro-2H-1-benzopyran-2-yl]benzoic acid] | 1360 | 93.0 |
| COc1ccc2c(c1)O[C@@H](c1ccc(C(=O)O)cc1)C[C@H]2NC(=O)C(C)(C)c1ccc(Cl)cc1 [Example 110, 4-{(2R,4R)-4-[2-(4-chlorophenyl)-2-methylpropanamido]-7-methoxy-3,4-dihydro-2H-1-benzopyran-2-yl}benzoic acid] | 310 | 85.0 |
| COc1ccc2c(c1)O[C@@H](c1ccc(C(=O)O)cc1)C[C@H]2NC(=O)C(C)(C)c1ccc(OC)c(F)c1 [Example 113, 4-{(2R,4R)-4-[2-(3-fluoro-4-methoxyphenyl)-2-methylpropanamido]-7-methoxy-3,4-dihydro-2H-1-benzopyran-2-yl}benzoic acid] | 60 | 43.5 |
| COc1ccc(C2(C(=O)N[C@@H]3C[C@H](c4ccc(C(=O)O)cc4)Oc4cc(OC)ccc43)CCCC2)cc1 [Example 114, 4-[(2R,4R)-7-methoxy-4-{[1-(4-methoxyphenyl)cyclopentane-1-carbonyl]amino}-3,4-dihydro-2H-1-benzopyran-2-yl]benzoic acid] | > 20000 | 2.2 |
| COc1ccc2c(c1)O[C@@H](c1ccc(C(=O)O)cc1)C[C@H]2NC(=O)C1(c2ccc(OC)c(OC)c2)CCC1 [Example 116, 4-[(2R,4R)-4-{[1-(3,4-dimethoxyphenyl)cyclobutane-1-carbonyl]amino}-7-methoxy-3,4-dihydro-2H-1-benzopyran-2-yl]benzoic acid] | 3250 | 27.6 |
